{"source": "patent US7138361B2", "about": "“Herbicidal heterocycles” (E. I. du Pont de Nemours and Company, priority 2000, dated 2006)", "assay_type_in_all_cases": "in vivo", "key": {"[1]": {"system": "pigweed (Amaranthus retroflexus)", "assay": "Test C preemergence", "from_the_text": "(§1) Seeds of plant species selected from bermudagrass (Cynodon dactylon), Surinam grass (Brachiaria decumbens), cocklebur (Xanthium strumarium), corn (Zea mays), crabgrass (Digitaria sanguinalis), woolly cupgrass (Eriochloa villosa), giant foxtail (Setaria faberii), goosegrass (Eleusine indica), johnsongrass (Sorghum halepense), kochia (Kochia scoparia), lambsquarters (Chenopodium album), morningglory (Ipomoea hederacea), yellow nutsedge (Cyperus esculentus), pigweed (Amaranthus retroflexus), common ragweed (Ambrosia elatior), soybean (Glycine max) and velvetleaf (Abutilon theophrasti) were planted and treated preemergence with test chemicals formulated in a non-phytotoxic solvent mixture which included a surfactant.\n(§2) At the same time, plants selected from these crop and weed species and also winter barley (Hordeum vulgare), blackgrass (Alopecurus myosuroides), canary grass (Phalaris minor), chickweed (Stellaria media), downy brome (Bromus tectorum), green foxtail (Setaria viridis), Italian ryegrass (Lolium multiflorum), wheat (Triticum aestivum), wild oat (Avena fatua) and windgrass (Apera spica-venti) were treated with postemergence applications of some of the test chemicals formulated in the same manner. Plants ranged in height from 2 to 18 cm (1- to 4-leaf stage) for postemergence treatments. Plant species in the flooded paddy test consisted of rice (Oryza saliva), smallflower flatsedge (Cyperus difformis), duck salad (Heteranthera limosa) and barnyardgrass (Echinochloa crus-galli) grown to the 2-leaf stage for testing. Treated plants and controls were maintained in a greenhouse for 12 to 14 days, after which time all species were compared to controls and visually evaluated. Plant response ratings, summarized in Table C, are based on a scale of 0 to 100 where 0 is no effect and 100 is complete control. A dash (-) response means no test result."}, "[2]": {"system": "crabgrass (Digitaria sanguinalis)", "assay": "Test C preemergence", "from_the_text": "as §1, §2"}, "[3]": {"system": "Surinam grass (Brachiaria decumbens)", "assay": "Test C preemergence", "from_the_text": "as §1, §2"}, "[4]": {"system": "giant foxtail (Setaria faberii)", "assay": "Test C preemergence", "from_the_text": "as §1, §2"}, "[5]": {"system": "bermudagrass (Cynodon dactylon)", "assay": "Test C preemergence", "from_the_text": "as §1, §2"}, "kochia (Kochia scoparia)": {"system": "kochia (Kochia scoparia)", "assay": "Test C preemergence", "from_the_text": "as §1, §2"}, "soybean (Glycine max)": {"system": "soybean (Glycine max)", "assay": "Test C preemergence", "from_the_text": "as §1, §2"}, "[6]": {"system": "cocklebur (Xanthium strumarium)", "assay": "Test C preemergence", "from_the_text": "as §1, §2"}, "[7]": {"system": "woolly cupgrass (Eriochloa villosa)", "assay": "Test C preemergence", "from_the_text": "as §1, §2"}, "[8]": {"system": "pigweed (Amaranthus retroflexus)", "assay": "Test B preemergence", "method_in_brief": "(§3)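 Preemergence: seeds planted and treated with test chemicals in non-phytotoxic solvent with surfactant; postemergence on plants 2–18 cm (1- to 4-leaf stage). Kept in greenhouse 13–15 days, then visually rated against controls on a 0 (no effect) to 100 (complete control) scale.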"}, "[9]": {"system": "crabgrass (Digitaria sanguinalis)", "assay": "Test B preemergence", "method_in_brief": "as §3"}, "[10]": {"system": "Surinam grass (Brachiaria decumbens)", "assay": "Test B preemergence", "method_in_brief": "as §3"}, "[11]": {"system": "giant foxtail (Setaria faberii)", "assay": "Test B preemergence", "method_in_brief": "as §3"}, "[12]": {"system": "morning glory (Ipomoea hederacea)", "assay": "Test B preemergence", "method_in_brief": "as §3"}, "[13]": {"system": "velvetleaf (Abutilon theophrasti)", "assay": "Test B preemergence", "method_in_brief": "as §3"}, "[14]": {"system": "barnyardgrass (Echinochloa crus-galli)", "assay": "Test B preemergence", "method_in_brief": "as §3"}, "[15]": {"system": "cocklebur (Xanthium strumarium)", "assay": "Test B preemergence", "method_in_brief": "as §3"}, "rice (Oryza saliva)": {"system": "rice (Oryza saliva)", "assay": "Test B preemergence", "method_in_brief": "as §3"}, "corn (Zea mays)": {"system": "corn (Zea mays)", "assay": "Test B preemergence", "method_in_brief": "as §3"}, "[16]": {"system": "lambsquarters (Chenopodium album)", "assay": "Test B preemergence", "method_in_brief": "as §3"}, "Sunflower": {"system": "Sunflower", "assay": "Test C preemergence", "details": "Rate 250 g/ha, scale 0 to 100, 0 no effect, 100 complete control"}, "[17]": {"details": "Rate 125 g/ha, scale 0 to 100, 0 no effect, 100 complete control"}, "[18]": {"details": "preemergence, Rate 31 g/ha, scale 0 to 100"}, "[19]": {"details": "preemergence, Rate 62 g/ha, scale 0 to 100"}, "[20]": {"details": "preemergence, Rate 250 g/ha, scale 0 to 100, 0 no effect, 100 complete control"}, "[21]": {"details": "Preemergence, Rate 500 g/ha, scale 0 to 100, 0 no effect, 100 complete control"}, "[22]": {"details": "preemergence, Rate 62 g/ha, scale of 0 to 100 where 0 is no effect and 100 is complete control, 13 to 15 days"}, "[23]": {"details": "preemergence, Rate 125 g/ha, scale of 0 to 100 where 0 is no effect and 100 is complete control, 13 to 15 days"}}, "data": [{"smiles": "Cc1ccc(N2CCC(n3ccc(C(C)(C)C)n3)C2=O)cc1OCCCl", "note": "(stereo not drawn) [Compound 109]", "values": [{"measurement": "Plant response rating, Pigweed", "setting": "[1]; [17]", "value": 70}, {"measurement": "Plant response rating, Pigweed", "setting": "[1]; [18]", "value": 20}, {"measurement": "Plant response rating, Pigweed", "setting": "[1]; [19]", "value": 20}, {"measurement": "Plant response rating, Pigweed", "setting": "[1]; [20]", "value": 80}, {"measurement": "Plant response rating, Crabgrass", "setting": "[2]; [17]", "value": 100}, {"measurement": "Plant response rating, Crabgrass", "setting": "[2]; [18]", "value": 100}, {"measurement": "Plant response rating, Crabgrass", "setting": "[2]; [19]", "value": 100}, {"measurement": "Plant response rating, Crabgrass", "setting": "[2]; [20]", "value": 100}, {"measurement": "Plant response rating, Surinam grass", "setting": "[3]; [17]", "value": 80}, {"measurement": "Plant response rating, Surinam grass", "setting": "[3]; [18]", "value": 0}, {"measurement": "Plant response rating, Surinam grass", "setting": "[3]; [19]", "value": 0}, {"measurement": "Plant response rating, Surinam grass", "setting": "[3]; [20]", "value": 90}, {"measurement": "Plant response rating, Foxtail, Giant", "setting": "[4]; [17]", "value": 20}, {"measurement": "Plant response rating, Foxtail, Giant", "setting": "[4]; [18]", "value": 0}, {"measurement": "Plant response rating, Foxtail, Giant", "setting": "[4]; [19]", "value": 0}, {"measurement": "Plant response rating, Foxtail, Giant", "setting": "[4]; [20]", "value": 90}, {"measurement": "Plant response rating, Bermudagrass", "setting": "[5]; [17]", "value": 100}, {"measurement": "Plant response rating, Bermudagrass", "setting": "[5]; [18]", "value": 100}, {"measurement": "Plant response rating, Bermudagrass", "setting": "[5]; [19]", "value": 100}, {"measurement": "Plant response rating, Bermudagrass", "setting": "[5]; [20]", "value": 100}, {"measurement": "Plant response rating, Kochia", "setting": "kochia (Kochia scoparia); [17]", "value": 100}, {"measurement": "Plant response rating, Kochia", "setting": "kochia (Kochia scoparia); [18]", "value": 90}, {"measurement": "Plant response rating, Kochia", "setting": "kochia (Kochia scoparia); [19]", "value": 100}, {"measurement": "Plant response rating, Kochia", "setting": "kochia (Kochia scoparia); [20]", "value": 100}, {"measurement": "Plant response rating, Soybean", "setting": "soybean (Glycine max); [17]", "value": 90}, {"measurement": "Plant response rating, Soybean", "setting": "soybean (Glycine max); [18]", "value": 20}, {"measurement": "Plant response rating, Soybean", "setting": "soybean (Glycine max); [19]", "value": 80}, {"measurement": "Plant response rating, Soybean", "setting": "soybean (Glycine max); [20]", "value": 90}, {"measurement": "Plant response rating, Cocklebur", "setting": "[6]; [17]", "value": 30}, {"measurement": "Plant response rating, Cocklebur", "setting": "[6]; [18]", "value": 0}, {"measurement": "Plant response rating, Cocklebur", "setting": "[6]; [19]", "value": 0}, {"measurement": "Plant response rating, Cocklebur", "setting": "[6]; [20]", "value": 30}, {"measurement": "Plant response rating, Cupgrass, Woolly", "setting": "[7]; [17]", "value": 90}, {"measurement": "Plant response rating, Cupgrass, Woolly", "setting": "[7]; [18]", "value": 10}, {"measurement": "Plant response rating, Cupgrass, Woolly", "setting": "[7]; [19]", "value": 90}, {"measurement": "Plant response rating, Cupgrass, Woolly", "setting": "[7]; [20]", "value": 100}, {"measurement": "Plant response rating, Pigweed", "setting": "[8]; [21]", "value": 100}, {"measurement": "Plant response rating, Pigweed", "setting": "[8]; [22]", "value": 100}, {"measurement": "Plant response rating, Pigweed", "setting": "[8]; [23]", "value": 100}, {"measurement": "Plant response rating, Pigweed", "setting": "[8]; [20]", "value": 100}, {"measurement": "Plant response rating, Crabgrass", "setting": "[9]; [21]", "value": 100}, {"measurement": "Plant response rating, Crabgrass", "setting": "[9]; [22]", "value": 100}, {"measurement": "Plant response rating, Crabgrass", "setting": "[9]; [23]", "value": 100}, {"measurement": "Plant response rating, Crabgrass", "setting": "[9]; [20]", "value": 100}, {"measurement": "Plant response rating, Surinam grass", "setting": "[10]; [21]", "value": 100}, {"measurement": "Plant response rating, Surinam grass", "setting": "[10]; [22]", "value": 20}, {"measurement": "Plant response rating, Surinam grass", "setting": "[10]; [23]", "value": 50}, {"measurement": "Plant response rating, Surinam grass", "setting": "[10]; [20]", "value": 90}, {"measurement": "Plant response rating, Foxtail, Giant", "setting": "[11]; [21]", "value": 50}, {"measurement": "Plant response rating, Foxtail, Giant", "setting": "[11]; [22]", "value": 20}, {"measurement": "Plant response rating, Foxtail, Giant", "setting": "[11]; [23]", "value": 0}, {"measurement": "Plant response rating, Foxtail, Giant", "setting": "[11]; [20]", "value": 100}, {"measurement": "Plant response rating, Morningglory", "setting": "[12]; [21]", "value": 0}, {"measurement": "Plant response rating, Morningglory", "setting": "[12]; [22]", "value": 0}, {"measurement": "Plant response rating, Morningglory", "setting": "[12]; [23]", "value": 0}, {"measurement": "Plant response rating, Morningglory", "setting": "[12]; [20]", "value": 0}, {"measurement": "Plant response rating, Velvetleaf", "setting": "[13]; [21]", "value": 70}, {"measurement": "Plant response rating, Velvetleaf", "setting": "[13]; [22]", "value": 0}, {"measurement": "Plant response rating, Velvetleaf", "setting": "[13]; [23]", "value": 0}, {"measurement": "Plant response rating, Velvetleaf", "setting": "[13]; [20]", "value": 60}, {"measurement": "Plant response rating, Barnyardgrass", "setting": "[14]; [21]", "value": 100}, {"measurement": "Plant response rating, Barnyardgrass", "setting": "[14]; [22]", "value": 0}, {"measurement": "Plant response rating, Barnyardgrass", "setting": "[14]; [23]", "value": 30}, {"measurement": "Plant response rating, Barnyardgrass", "setting": "[14]; [20]", "value": 50}, {"measurement": "Plant response rating, Cocklebur", "setting": "[15]; [21]", "value": 0}, {"measurement": "Plant response rating, Cocklebur", "setting": "[15]; [22]", "value": 0}, {"measurement": "Plant response rating, Cocklebur", "setting": "[15]; [23]", "value": 0}, {"measurement": "Plant response rating, Cocklebur", "setting": "[15]; [20]", "value": 0}, {"measurement": "Plant response rating, Rice", "setting": "rice (Oryza saliva); [21]", "value": 0}, {"measurement": "Plant response rating, Rice", "setting": "rice (Oryza saliva); [22]", "value": 0}, {"measurement": "Plant response rating, Rice", "setting": "rice (Oryza saliva); [23]", "value": 0}, {"measurement": "Plant response rating, Rice", "setting": "rice (Oryza saliva); [20]", "value": 0}, {"measurement": "Plant response rating, Corn", "setting": "corn (Zea mays); [21]", "value": 0}, {"measurement": "Plant response rating, Corn", "setting": "corn (Zea mays); [22]", "value": 0}, {"measurement": "Plant response rating, Corn", "setting": "corn (Zea mays); [23]", "value": 0}, {"measurement": "Plant response rating, Corn", "setting": "corn (Zea mays); [20]", "value": 0}, {"measurement": "Plant response rating, Lambsquarters", "setting": "[16]; [21]", "value": 100}, {"measurement": "Plant response rating, Lambsquarters", "setting": "[16]; [22]", "value": 100}, {"measurement": "Plant response rating, Lambsquarters", "setting": "[16]; [23]", "value": 100}, {"measurement": "Plant response rating, Lambsquarters", "setting": "[16]; [20]", "value": 100}, {"measurement": "Plant response rating, Sunflower", "setting": "Sunflower", "value": 90}]}]}
